Our source for the MIC and Retention_time values is ChEMBL document CHEMBL4229348, “Structure-activity relationship studies of ultra-short peptides with potent activities against fluconazole-resistant Candida albicans” (Eur J Med Chem, 2018).

Data set [1] has as its system Candida albicans. As to the kind of experiment: Antifungal activity against fluconazole-resistant Candida albicans ATCC 64550 after overnight incubation by CLSI broth microdilution method. Type of data set: functional. For orientation: Dilution methods test growth across graded concentrations, often in twofold steps.
Data set [2] in a line: Retention time of the compound at 0.4 mM by HPLC analysis. Type of data set: physicochemical. To be noted: 400 µM.

As usually defined, the MIC is the least concentration at which growth counts as inhibited.

Values after ≈ are worked out from the molar mass of the structure shown. Square brackets hold non-standard residues; d marks the D form. Peptide text beside a SMILES is read from it. Lys(Me2) = CN(C)CCCC[C@H](N)C(=O)O; Ala(cPr) = N[C@@H](CC1CC1)C(=O)O; tBuAla = CC(C)(C)C[C@H](N)C(=O)O; Dap = NC[C@H](N)C(=O)O A value given as a limit tells only on which side of the number the result lay.

In data set [1], `CC(C)C[C@@H](N)C(=O)N[C@H](CCCCN)C(=O)N[C@H](CC(C)C)C(=O)N[C@H](CCCCN)C(=O)N[C@H](CC(C)C)C(=O)N[C@H](CCCCN)C(=O)N[C@H](CC(C)C)C(=O)N[C@H](CCCCN)C(N)=O` gave an MIC of 3.13 µM (≈ 3.07 µg/mL). This molecule also registered a Retention_time in data set [2] of 13.8 min.
For `CC(C)C[C@H](NC(=O)[C@H](CCCCN)NC(=O)[C@H](CC(C)C)NC(=O)[C@H](CCCCN)NC(=O)[C@H](CC(C)C)NC(=O)[C@H](CCCCN)NC(=O)[C@@H](N)CC(C)C)C(=O)N[C@@H](CCCCN)C(N)=O`, in that order: 3.13 µM (≈ 3.07 µg/mL) and 13.8 min.
For `CC[C@H](C)[C@H](N)C(=O)N[C@@H](CN)C(=O)N[C@H](C(=O)N[C@@H](CN)C(=O)N[C@H](C(=O)N[C@@H](CN)C(=O)N[C@H](C(=O)N[C@@H](CN)C(=O)N[C@H](C(N)=O)[C@@H](C)CC)[C@@H](C)CC)[C@@H](C)CC)[C@@H](C)CC` (H-I[Dap]I[Dap]I[Dap]I[Dap]I-NH2), in that order: 25 µM (≈ 23.2 µg/mL) and 13.7 min.
For `CC[C@H](C)[C@H](N)C(=O)N[C@@H](CCCCN(C)C)C(=O)N[C@H](C(=O)N[C@@H](CCCCN(C)C)C(=O)N[C@H](C(=O)N[C@@H](CCCCN(C)C)C(=O)N[C@H](C(=O)N[C@@H](CCCCN(C)C)C(N)=O)[C@@H](C)CC)[C@@H](C)CC)[C@@H](C)CC` (H-I[Lys(Me2)]I[Lys(Me2)]I[Lys(Me2)]I[Lys(Me2)]-NH2), in that order: 100 µM (≈ 109 µg/mL) and 14 min.
`CC(C)C[C@H](NC(=O)[C@H](CCCCN)NC(=O)[C@@H](N)CC(C)C)C(=O)N[C@@H](CCCCN)C(N)=O` (H-LKLK-NH2) returned a minimum inhibitory concentration (MIC) in data set [1] of over 100 µM. Further, the Retention_time in data set [2] came out at 11 min.
In data set [1], `CC(C)C[C@H](NC(=O)[C@H](CCCCN)NC(=O)[C@@H](N)CC(C)C)C(N)=O` (H-Leu-Lys-Leu-NH2) yielded an MIC of over 100 µM. In data set [2], this molecule showed a Retention_time of 12.1 min.
For `CC(C)C[C@H](N)C(=O)N[C@@H](CCCCN)C(N)=O` (H-Leu-Lys-NH2), in that order: over 100 µM and 2.1 min.
In turn, `CC(C)C[C@H](NC(=O)[C@@H](N)CCCCN)C(=O)N[C@@H](CCCCN)C(N)=O` (H-Lys-Leu-Lys-NH2) yielded an MIC in data set [1] of over 100 µM. The molecule further displayed a Retention_time in data set [2] of 2.4 min.
In data set [1], `NCCCC[C@H](NC(=O)[C@H](CC1CC1)NC(=O)[C@H](CCCCN)NC(=O)[C@H](CC1CC1)NC(=O)[C@H](CCCCN)NC(=O)[C@H](CC1CC1)NC(=O)[C@H](CCCCN)NC(=O)[C@@H](N)CC1CC1)C(N)=O` (H-[Ala(cPr)]K[Ala(cPr)]K[Ala(cPr)]K[Ala(cPr)]K-NH2) showed a minimum inhibitory concentration (MIC) of 6.25 µM (≈ 6.09 µg/mL). Moreover, the Retention_time in data set [2] amounted to 12.8 min.
For `CC(C)(C)C[C@H](NC(=O)[C@H](CCCCN)NC(=O)[C@H](CC(C)(C)C)NC(=O)[C@H](CCCCN)NC(=O)[C@H](CC(C)(C)C)NC(=O)[C@H](CCCCN)NC(=O)[C@@H](N)CC(C)(C)C)C(=O)N[C@@H](CCCCN)C(N)=O` (H-[tBuAla]K[tBuAla]K[tBuAla]K[tBuAla]K-NH2), in that order: 3.13 µM (≈ 3.25 µg/mL) and 15.6 min.
For `CC[C@H](C)[C@H](N)C(=O)N[C@@H](CCN)C(=O)N[C@H](C(=O)N[C@@H](CCN)C(=O)N[C@H](C(=O)N[C@@H](CCN)C(=O)N[C@H](C(=O)N[C@@H](CCN)C(=O)N[C@H](C(N)=O)[C@@H](C)CC)[C@@H](C)CC)[C@@H](C)CC)[C@@H](C)CC` (HELM PEPTIDE1{I.[Dab].I.[Dab].I.[Dab].I.[Dab].I.[am]}$$$$V2.0), in that order: 6.25 µM (≈ 6.15 µg/mL) and 13.5 min.
As for `CC[C@H](C)[C@H](N)C(=O)N[C@@H](CCCN)C(=O)N[C@H](C(=O)N[C@@H](CCCN)C(=O)N[C@H](C(=O)N[C@@H](CCCN)C(=O)N[C@H](C(=O)N[C@@H](CCCN)C(=O)N[C@H](C(N)=O)[C@@H](C)CC)[C@@H](C)CC)[C@@H](C)CC)[C@@H](C)CC` (HELM PEPTIDE1{I.[Orn].I.[Orn].I.[Orn].I.[Orn].I.[am]}$$$$V2.0), the MIC in data set [1] was found to be 6.25 µM (≈ 6.5 µg/mL). In addition, the Retention_time in data set [2] stood at 13.2 min.
For `CC[C@H](NC(=O)[C@H](CCCCN)NC(=O)[C@H](CC)NC(=O)[C@H](CCCCN)NC(=O)[C@H](CC)NC(=O)[C@H](CCCCN)NC(=O)[C@@H](N)CC)C(=O)N[C@@H](CCCCN)C(N)=O` (HELM PEPTIDE1{[Abu].K.[Abu].K.[Abu].K.[Abu].K.[am]}$$$$V2.0), in that order: over 100 µM and 6 min.
For `CCCCCCCCCCCC(=O)N[C@H](C(=O)N[C@@H](CCCCN)C(=O)N[C@H](C(=O)N[C@@H](CCCCN)C(=O)N[C@H](C(=O)N[C@@H](CCCCN)C(=O)N[C@H](C(=O)N[C@@H](CCCCN)C(N)=O)[C@@H](C)CC)[C@@H](C)CC)[C@@H](C)CC)[C@@H](C)CC` (HELM PEPTIDE1{[CCCCCCCCCCCC(=O)[*:2]].I.K.I.K.I.K.I.K.[am]}$$$$V2.0), in that order: over 100 µM and 20.8 min.
For `CCCCCCCCCCCCCCCC(=O)N[C@H](C(=O)N[C@@H](CCCCN)C(=O)N[C@H](C(=O)N[C@@H](CCCCN)C(=O)N[C@H](C(=O)N[C@@H](CCCCN)C(=O)N[C@H](C(=O)N[C@@H](CCCCN)C(N)=O)[C@@H](C)CC)[C@@H](C)CC)[C@@H](C)CC)[C@@H](C)CC` (HELM PEPTIDE1{[CCCCCCCCCCCCCCCC(=O)[*:2]].I.K.I.K.I.K.I.K.[am]}$$$$V2.0), in that order: over 100 µM and 23.5 min.
For `NCCCC[C@H](NC(=O)[C@H](CC1CCCCC1)NC(=O)[C@H](CCCCN)NC(=O)[C@H](CC1CCCCC1)NC(=O)[C@H](CCCCN)NC(=O)[C@H](CC1CCCCC1)NC(=O)[C@H](CCCCN)NC(=O)[C@@H](N)CC1CCCCC1)C(N)=O` (HELM PEPTIDE1{[Cha].K.[Cha].K.[Cha].K.[Cha].K.[am]}$$$$V2.0), the MIC in data set [1] was over 100 µM. In data set [2], this molecule came in with a Retention_time of 17.9 min.
In data set [1], `CCC[C@H](NC(=O)[C@H](CCCCN)NC(=O)[C@H](CCC)NC(=O)[C@H](CCCCN)NC(=O)[C@H](CCC)NC(=O)[C@H](CCCCN)NC(=O)[C@@H](N)CCC)C(=O)N[C@@H](CCCCN)C(N)=O` (HELM PEPTIDE1{[Nva].K.[Nva].K.[Nva].K.[Nva].K.[am]}$$$$V2.0) registered a minimal inhibitory concentration (MIC) of 6.25 µM (≈ 5.79 µg/mL). In data set [2], the Retention_time came out at 12 min.
For Ac-IKIKIKIK-NH2, in that order: 12.5 µM and 14.3 min.
For H-AKAKAKAK-NH2, in that order: over 100 µM and 1.9 min.
In data set [1], H-AKIKIKIK-NH2 gave a minimal inhibitory concentration (MIC) of 6.25 µM. This molecule registered a Retention_time in data set [2] of 12.4 min.
For H-EKEKEKEK-NH2, in that order: over 100 µM and 1.9 min.
For H-FKFKFKFK-NH2, in that order: 6.25 µM and 15.2 min.
For H-GKGKGKGK-NH2, in that order: over 100 µM and 1.6 min.
In the case of H-IAIKIKIK-NH2, in data set [1], the MIC amounted to 12.5 µM. Besides, the Retention_time in data set [2] was determined as 13.7 min.
For H-IEIEIEIE-NH2, in that order: over 100 µM and 16.1 min.
For H-IIIIKKKK-NH2, in that order: 12.5 µM and 12 min.
On to H-IIKKIIKK-NH2, for which, in data set [1], the minimum inhibitory concentration (MIC) is over 100 µM. In addition, the Retention_time in data set [2] was found to be 11.6 min.
For H-IK(Ac)IK(Ac)IK(Ac)IK(Ac)-NH2, in that order: over 100 µM and 22.9 min.
For H-IKAKIKIK-NH2, in that order: 6.25 µM and 11.8 min.
For H-IKIAIKIK-NH2, in that order: 12.5 µM and 13.8 min.
With H-IKIKAKIK-NH2, the lowest concentration to inhibit growth in data set [1] (MIC) was 6.25 µM. In data set [2], this molecule showed a Retention_time of 11.8 min.
The molecule H-IKIKIAIK-NH2 gave a minimum inhibitory concentration (MIC) in data set [1] of 12.5 µM. The Retention_time in data set [2] is 13.8 min.
For H-IKIKIKAK-NH2, in that order: 6.25 µM and 12 min.
For H-IKIKIKIA-NH2, in that order: 12.5 µM and 13.9 min.
For H-IKIKIKIK-OH, in that order: 12.5 µM and 13.5 min.
As to H-ILRWPWWPWRRK-NH2 [OMIGANAN], the lowest concentration to inhibit growth in data set [1] (MIC) was 50 µM.
In data set [1], H-IRIRIRIR-NH2 registered a minimal inhibitory concentration (MIC) of 12.5 µM. The Retention_time in data set [2] is on record as 13.9 min.
For H-KIKIKIKI-NH2, in that order: 3.13 µM and 14 min.
Consider H-KKIIKKII-NH2, for which, in data set [1], the MIC is over 100 µM. The molecule also returned a Retention_time in data set [2] of 12.6 min.
For H-KKKKKKKK-NH2, in that order: over 100 µM and 2 min.
Turning to H-KLKLK-NH2, in data set [1], the MIC was over 100 µM. The Retention_time in data set [2] was found to be 11.2 min.
For H-KLKLKLK-NH2, in that order: 25 µM and 12.7 min.
For H-KLKLKLKL-NH2, in that order: 3.13 µM and 14.4 min.
H-KLKLKLKLK-NH2: the lowest concentration to inhibit growth in data set [1] (MIC) was 3.13 µM. For the same molecule, in data set [2], the Retention_time was 13.6 min.
For H-LKLKL-NH2, in that order: over 100 µM and 13.7 min.
For H-LKLKLK-NH2, in that order: 100 µM and 12.8 min.
For H-LKLKLKL-NH2, in that order: 50 µM and 14.5 min.
For the molecule H-LKLKLKLKL-NH2, the MIC in data set [1] came to 3.13 µM. In data set [2], this molecule came in with a Retention_time of 15.1 min.
For H-LKLKLKLKLK-NH2, in that order: 3.13 µM and 14.5 min.
For H-VKVKVKVK-NH2, in that order: 6.25 µM and 11.1 min.
For H-WKWKWKWK-NH2, in that order: over 100 µM and 15.9 min.
